Legend:
Experiment in all cases: relative viability (nuclei count vs DMSO), 5 days (fraction); higher = more cells survive
[1] = compound: C=CCc1cccc(/C=N/NC(=O)CN2CCN(Cc3ccccc3)CC2)c1O [PAC-1] + Cc1cc(Nc2cc(N3CCN(C)CC3)nc(Sc3ccc(NC(=O)C4CC4)cc3)n2)n[nH]1 [Tozasertib] (partner 0.1 µM)
Summary of the method: (§1)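 Dosing by pin tool came one day after lung cancer cell lines were seeded in 1536-well plates, using either one drug or a fixed anchor-drug dose plus five library-drug doses (not always all listed) in √10 steps. After 5 days, nuclei were counted on 4× images. Relative viability is treated-well nuclei count divided by vehicle-well nuclei count, and values are medians of duplicate plates.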

[2] = compound: C=CC(=O)N1CCC[C@@H](n2nc(-c3ccc(Oc4ccccc4)cc3)c3c(N)ncnc32)C1 [Ibrutinib] + N=C(N)NC(=N)NCCc1ccccc1 [Phenformin] (partner 250 µM)
Summary of the method: as §1

[3] = compound: C=CC(=O)N1CCC[C@@H](n2nc(-c3ccc(Oc4ccccc4)cc3)c3c(N)ncnc32)C1 [Ibrutinib] + COc1cc2c(Oc3ccc(NC(=O)C4(C(=O)Nc5ccc(F)cc5)CC4)cc3F)ccnc2cc1OCCCN1CCOCC1 [Foretinib] (partner 0.25 µM)
Summary of the method: as §1

[4] = compound: C=CC(=O)Nc1cc(-n2c(=O)ccc3cnc4ccc(-c5ccc(NS(C)(=O)=O)cc5)cc4c32)ccc1C [BMX-IN-1] + N=C(N)NC(=N)NCCc1ccccc1 [Phenformin] (partner 250 µM)
Summary of the method: as §1

Row | Cell Line | relative viability ([1]; first compound 0.02 µM) | relative viability ([1]; first compound 0.06325 µM) | relative viability ([1]; first compound 0.2 µM) | relative viability ([1]; first compound 2 µM) | relative viability ([2]; first compound 0.005 µM) | relative viability ([2]; first compound 0.01581 µM) | relative viability ([2]; first compound 0.05 µM) | relative viability ([2]; first compound 0.1581 µM) | relative viability ([2]; first compound 0.5 µM) | relative viability ([3]; first compound 0.005 µM) | relative viability ([3]; first compound 0.01581 µM) | relative viability ([3]; first compound 0.05 µM) | relative viability ([3]; first compound 0.1581 µM) | relative viability ([3]; first compound 0.5 µM) | relative viability ([4]; first compound 0.02 µM) | relative viability ([4]; first compound 0.2 µM) | relative viability ([4]; first compound 0.6325 µM) | relative viability ([4]; first compound 2 µM)
1 | NCI-H1734 | 0.199 | 0.256 | 0.23 | 0.267 | 0.338 | 0.349 | 0.419 | 0.355 | 0.381 | 0.827 | 0.822 | 0.965 | 0.895 | 0.718 | 0.341 | 0.431 | 0.461 | 0.415
2 | NCI-H1755 | 0.541 | 0.587 | 0.506 | 0.512 | 0.667 | 0.624 | 0.65 | 0.627 | 0.665 | 0.929 | 0.925 | 0.951 | 1.02 | 0.855 | 0.544 | 0.673 | 0.711 | 0.612
3 | NCI-H1793 | 0.316 | 0.338 | 0.439 | 0.238 |  | 0.313 | 0.281 | 0.318 | 0.282 |  | 0.566 | 0.552 | 0.545 | 0.416 | 0.272 | 0.398 | 0.467 | 0.433
4 | NCI-H1915 | 0.421 | 0.436 | 0.411 | 0.428 | 0.401 | 0.351 | 0.367 | 0.421 | 0.373 | 1.12 | 1.07 | 1.11 | 1.15 | 1.09 | 0.32 | 0.387 | 0.389 | 0.37
5 | NCI-H1944 | 0.231 | 0.247 | 0.236 | 0.246 | 0.202 | 0.176 | 0.195 | 0.177 | 0.182 | 0.891 | 0.734 | 0.72 | 0.879 | 0.605 | 0.2 | 0.219 | 0.234 | 0.205

Source: the supplement of paper PMC10307832
